Assay results published in PubChem BioAssay (NCI).
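Protocol summary: plate cells (96-well), add compound at 5 concentrations, incubate 48 h, interpolate endpoints linearly. GI50: concentration for 50% inhibition of growth. Definition used: TGI = concentration required for complete inhibition of growth.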

Tests used:
Assay in all cases: inhibition of tumour cell growth, NCI panel, 48 h; in the data active = GI50 below about 0.43 µM; inactive = the rest
HOP-92 NSCLC = tested on: HOP-92 NSCLC
M14 melanoma = tested on: M14 melanoma
SF-268 CNS = tested on: SF-268 CNS
SK-MEL-5 melanoma = tested on: SK-MEL-5 melanoma
U251 CNS = tested on: U251 CNS
NCI-H522 lung = tested on: NCI-H522 lung
HT29 colon = tested on: HT29 colon
MCF7 breast = tested on: MCF7 breast
K-562 leukemia = tested on: K-562 leukemia
NCI-H460 lung = tested on: NCI-H460 lung
SK-OV-3 ovarian = tested on: SK-OV-3 ovarian
UACC-62 melanoma = tested on: UACC-62 melanoma
RPMI-8226 leukemia = tested on: RPMI-8226 leukemia
OVCAR-5 ovarian = tested on: OVCAR-5 ovarian
A498 renal = tested on: A498 renal
MOLT-4 leukemia = tested on: MOLT-4 leukemia
UACC-257 melanoma = tested on: UACC-257 melanoma
SNB-19 CNS = tested on: SNB-19 CNS
TK-10 renal = tested on: TK-10 renal
T-47D breast = tested on: T-47D breast
PC-3 prostate = tested on: PC-3 prostate
HCC-2998 colon = tested on: HCC-2998 colon
NCI-H23 lung = tested on: NCI-H23 lung
SF-539 CNS = tested on: SF-539 CNS
NCI-H226 lung = tested on: NCI-H226 lung
SF-295 CNS = tested on: SF-295 CNS
A549 NSCLC = tested on: A549 NSCLC
HCT-15 colon = tested on: HCT-15 colon
ACHN renal = tested on: ACHN renal
HOP-62 NSCLC = tested on: HOP-62 NSCLC
SW-620 colon = tested on: SW-620 colon
OVCAR-8 ovarian = tested on: OVCAR-8 ovarian
HCT-116 colon = tested on: HCT-116 colon
MALME-3M melanoma = tested on: MALME-3M melanoma
IGROV1 ovarian = tested on: IGROV1 ovarian
786-0 renal = tested on: 786-0 renal
BT-549 breast = tested on: BT-549 breast
MDA-MB-231 breast = tested on: MDA-MB-231 breast
OVCAR-3 ovarian = tested on: OVCAR-3 ovarian
CAKI-1 renal = tested on: CAKI-1 renal
LOX IMVI melanoma = tested on: LOX IMVI melanoma
NCI/ADR-RES ovarian = tested on: NCI/ADR-RES ovarian
SK-MEL-28 melanoma = tested on: SK-MEL-28 melanoma
HS 578T breast = tested on: HS 578T breast
KM12 colon = tested on: KM12 colon
SNB-75 CNS = tested on: SNB-75 CNS
SN12C renal = tested on: SN12C renal
MDA-MB-435 = tested on: MDA-MB-435
SK-MEL-2 melanoma = tested on: SK-MEL-2 melanoma
COLO 205 colon = tested on: COLO 205 colon
SR leukemia = tested on: SR leukemia
DU-145 prostate = tested on: DU-145 prostate
CCRF-CEM leukemia = tested on: CCRF-CEM leukemia
UO-31 renal = tested on: UO-31 renal
HL-60(TB) leukemia = tested on: HL-60(TB) leukemia
RXF 393 renal = tested on: RXF 393 renal
OVCAR-4 ovarian = tested on: OVCAR-4 ovarian

CCN(Cc1cccnc1)c1ccc(CO)c(Cl)c1
5.36 µM: TGI (OVCAR-3 ovarian)
active: GI50 (UACC-62 melanoma) 0.289 µM | GI50 (OVCAR-5 ovarian) 0.244 µM | GI50 (A498 renal) 0.0797 µM | GI50 (UACC-257 melanoma) 0.195 µM | GI50 (TK-10 renal) 0.12 µM | GI50 (T-47D breast) 0.269 µM | GI50 (NCI-H226 lung) 0.0885 µM | GI50 (HCT-116 colon) 0.298 µM | GI50 (IGROV1 ovarian) 0.241 µM
4.63 µM: TGI (OVCAR-4 ovarian)
> 60.2 µM: TGI (SK-MEL-5 melanoma)
> 75.8 µM: TGI (A549 NSCLC)
0.915 µM: TGI (OVCAR-5 ovarian)
2.05 µM: TGI (UACC-62 melanoma)
5.33 µM: TGI (COLO 205 colon)
0.236 µM: TGI (A498 renal)
0.621 µM: TGI (UACC-257 melanoma)
8.66 µM: TGI (NCI-H460 lung)
0.333 µM: TGI (TK-10 renal)
> 100 µM: TGI (M14 melanoma) | TGI (SF-268 CNS) | TGI (U251 CNS) | TGI (NCI-H522 lung) | TGI (HT29 colon) | TGI (MCF7 breast) | TGI (K-562 leukemia) | TGI (SK-OV-3 ovarian) | TGI (RPMI-8226 leukemia) | TGI (MOLT-4 leukemia) | TGI (SNB-19 CNS) | TGI (PC-3 prostate) | TGI (HCC-2998 colon) | TGI (NCI-H23 lung) | TGI (SF-539 CNS) | TGI (SF-295 CNS) | TGI (HCT-15 colon) | TGI (ACHN renal) | TGI (HOP-62 NSCLC) | TGI (SW-620 colon) | TGI (OVCAR-8 ovarian) | TGI (HCT-116 colon) | TGI (MALME-3M melanoma) | TGI (786-0 renal) | TGI (BT-549 breast) | TGI (MDA-MB-231 breast) | TGI (CAKI-1 renal) | TGI (LOX IMVI melanoma) | TGI (NCI/ADR-RES ovarian) | TGI (SK-MEL-28 melanoma) | TGI (HS 578T breast) | TGI (KM12 colon) | TGI (SNB-75 CNS) | TGI (SN12C renal) | TGI (MDA-MB-435) | TGI (SK-MEL-2 melanoma) | TGI (SR leukemia) | TGI (DU-145 prostate) | TGI (CCRF-CEM leukemia) | TGI (UO-31 renal) | TGI (HL-60(TB) leukemia) | TGI (RXF 393 renal)
1.54 µM: TGI (T-47D breast)
0.269 µM: TGI (NCI-H226 lung)
66.4 µM: TGI (HOP-92 NSCLC)
inactive: GI50 (HOP-92 NSCLC) 3.21 µM | GI50 (M14 melanoma) > 100 µM | GI50 (SF-268 CNS) > 100 µM | GI50 (SK-MEL-5 melanoma) 15.1 µM | GI50 (U251 CNS) 3.75 µM | GI50 (NCI-H522 lung) > 100 µM | GI50 (HT29 colon) 4.67 µM | GI50 (MCF7 breast) 0.459 µM | GI50 (K-562 leukemia) 5.58 µM | GI50 (NCI-H460 lung) 0.555 µM | GI50 (SK-OV-3 ovarian) 23.5 µM | GI50 (RPMI-8226 leukemia) 11.1 µM | GI50 (MOLT-4 leukemia) > 94.9 µM | GI50 (SNB-19 CNS) > 100 µM | GI50 (PC-3 prostate) 58.4 µM | GI50 (HCC-2998 colon) 10.4 µM | GI50 (NCI-H23 lung) 45 µM | GI50 (SF-539 CNS) > 100 µM | GI50 (SF-295 CNS) 1.06 µM | GI50 (A549 NSCLC) 5.73 µM | GI50 (HCT-15 colon) > 88.8 µM | GI50 (ACHN renal) 97.7 µM | GI50 (HOP-62 NSCLC) 7.3 µM | GI50 (SW-620 colon) 3.66 µM | GI50 (OVCAR-8 ovarian) 34.9 µM | GI50 (MALME-3M melanoma) > 100 µM | GI50 (786-0 renal) > 45.5 µM | GI50 (BT-549 breast) > 94.3 µM | GI50 (MDA-MB-231 breast) > 95.8 µM | GI50 (OVCAR-3 ovarian) 1.13 µM | GI50 (CAKI-1 renal) 22.5 µM | GI50 (LOX IMVI melanoma) > 100 µM | GI50 (NCI/ADR-RES ovarian) 36.5 µM | GI50 (SK-MEL-28 melanoma) > 100 µM | GI50 (HS 578T breast) > 100 µM | GI50 (KM12 colon) > 100 µM | GI50 (SNB-75 CNS) 65.9 µM | GI50 (SN12C renal) > 87.5 µM | GI50 (MDA-MB-435) > 100 µM | GI50 (SK-MEL-2 melanoma) > 37 µM | GI50 (COLO 205 colon) 1.42 µM | GI50 (SR leukemia) > 100 µM | GI50 (DU-145 prostate) > 81.3 µM | GI50 (CCRF-CEM leukemia) > 96 µM | GI50 (UO-31 renal) 20 µM | GI50 (HL-60(TB) leukemia) 22.6 µM | GI50 (OVCAR-4 ovarian) 0.433 µM
1.12 µM: TGI (IGROV1 ovarian)
